Experiments:
human islets β-cells = test: β-cell apoptosis (TUNEL, caspase 3 activation) in human islets, leptin/siRNA study; format: cell-based; settings: for cleaved caspase 3 level: leptin
Method: (§1) Islet isolation and cell culture. Islets were isolated from pancreases of ten organ donors at the Department of Surgery, University of Geneva Medical Center, as described (32-34). The islet purity was >95%, as judged by dithizone staining (if this degree of purity was not primarily achieved by routine isolation, islets were handpicked). […] For long-term in vitro studies, the islets were cultured on extracellular matrix-coated plates derived from bovine corneal endothelial cells (Novamed Ltd., Jerusalem, Israel), allowing the cells to attach to the dishes and spread, preserving their functional integrity (7;35). Islets were cultured in CMRL 1066 medium containing 100 U/ml penicillin, 100 μg/ml streptomycin and 10% fetal calf serum (Invitrogen Corporation, Paisley, U.K.), hereafter referred to as culture medium. Two days after plating, when most islets were attached and began to flatten, the medium was changed to culture medium containing 5.5, 11.1 or 33.3 mM glucose. In some experiments, islets were additionally cultured with 5, 10 or 500 nM rh leptin (PeproTech, London, UK), 500 ng/ml rh IL-1Ra (R&D Systems Inc., Minneapolis, Minn.) or 50 nM small interfering RNA (siRNA) as described below.
(§2) RNA interference. RNAs of 21 nucleotides, designed to target human IL-1Ra (5′AUCUGCAGAGGCCUCCGCAtt3′/5′UGCGGAGGCCUCUGCAGAUtt3′) and scrambled siRNA were synthesized by Ambion (Austin, Tex.). siRNAs were transfected using SiPortAmine™ according to the manufacturer's instructions (Ambion).
Western blot analysis. Human islets were maintained in culture medium in nonadherent plastic dishes. One day after isolation, the medium was changed and groups of 200 islets were incubated in culture medium containing 5.5 glucose with or without 10 or 500 nM leptin or 50 nM siRNA. At the end of the incubations, islets were washed in PBS, suspended in 40 μl sample buffer containing 125 mM Tris-HCl (pH 6.8), 4% SDS, 10% glycerol, 0.3% bromphenol blue, 1.8% β-mercaptoethanol and boiled for 5 min. Equivalent amounts of each treatment group were run on 15% SDS polyacrylamide gels. Proteins were electrically transferred to nitrocellulose filters and incubated with biotinylated goat anti-IL-1Ra, mouse anti-caspase 3 (which binds to both, procaspase-3 and activated caspase-3; Pharmingen, San Diego, Calif.), or mouse anti-actin (C-2; Santa Cruz Biotechnology Inc., Santa Cruz, Calif.) antibodies, followed by incubation with horseradish-peroxidase-linked anti-mouse (Santa Cruz Biotechnology Inc.) or streptavidin (Jackson). The emitted light was captured on X-ray film after adding Lumi-Light Western Blotting Substrate (Roche, Basel, Switzerland). As a marker, Kaleidoscope Prestained Standards (Bio Rad, Laboratories inc., Hercules, Calif.) was run in parallel. Between incubations, nitrocellulose membranes were stripped for 30 min at 50° C. in 40 ml of a solution containing 280 μl β-mercaptoethanol, 5 ml 0.5 M Tris-HCl (pH 6.8) and 10% SDS, and then washed for 1 h in Tris-buffered saline containing 0.10/0 Tween-20.
β-cell apoptosis. The free 3′-OH strand breaks resulting from DNA degradation were detected using the terminal deoxynucleotidyl transferase-mediated dUTP nick-end labeling (TUNEL) technique as described in detail (70;76;77). Thereafter, islets were incubated with guinea pig anti-insulin antibody as above, followed by detection using the streptavidin-biotin-peroxidase complex (Zymed Laboratories Inc., South San Francisco, Calif., USA). In parallel to the TUNEL reaction, apoptosis was confirmed by detection of caspase 3 activation as described above (Western blot analysis).

human islets = test: Insulin release and content of human islets, leptin/siRNA study; format: cell-based
Method: as §1, §2
Insulin release and content. To determine acute insulin release in response to glucose stimulation, islets were washed in Kreb's ringer bicarbonate buffer (KRB-Hepes, pH 7.4: 4.8 mM KCl, 134 mM NaCl, 5 mM NaHCO3, 1.2 mM MgSO4, 1.2 mM KH2PO4, 1 mM CaCl2, 0.5% BSA, 10 mM HEPES) containing 3.3 mM glucose and pre-incubated for 30 min in the same buffer. The KRB was then discarded and replaced by fresh buffer containing 3.3 mM glucose for 1 h for basal secretion, followed by an additional 1 h of incubation in KRB containing 16.7 mM glucose. Supernatants were collected and frozen for insulin assays. Thereafter, islets were washed with PBS and extracted with 0.18 N HCl in 70% ethanol for 24 h at 4° C. The acid-ethanol extracts were collected for determination of insulin content. Insulin was determined by a human insulin RIA kit (CIS bio international, Gif-Sur-Yvette, France).

[1] = leptin plus exogenous rh IL-1Ra 500 ng/ml
[2] = plus 500 ng/ml exogenous rhIL-1Ra

| Substance | leptin-induced β-cell apoptosis (human islets β-cells; [1]) | β-cell apoptosis induced by 33.3 mM glucose alone (human islets β-cells; [2]) | β-cell apoptosis induced by 33.3 mM glucose and siIL-1Ra (human islets β-cells; [2]) | siIL-1Ra-induced DNA fragmentation (human islets β-cells; siIL-1Ra plus 500 ng/ml exogenous rhIL-1Ra) | β-cell function and insulin content (human islets; [1]) | loss of acute glucose-stimulated insulin release by high glucose and/or siIL-1Ra (human islets; plus exogenous rh IL-1Ra) | insulin content (human islets; siIL-1Ra and/or high glucose plus rh IL-1Ra) | glucose stimulation of insulin release (human islets; siIL-1Ra at 5.5 mM glucose, co-incubation with exogenous rh IL-1Ra) | number of TUNEL-positive β-cells (human islets β-cells; 10 nM leptin, 4 days) | 33.3 mM glucose-induced apoptosis (human islets β-cells; leptin plus 33.3 mM glucose, 4 days) | cleaved caspase 3 level (human islets β-cells; 15 hours) | cleaved caspase 3 level (human islets β-cells; 48 hours) | decrease of chronic insulin secretion during the culture period (human islets; leptin, 4 days) | glucose-stimulated insulin secretion (human islets; leptin, 4 days, 5.5 mM glucose) | insulin content (human islets; leptin, 4 days, 5.5 mM glucose) |
| --- | --- | --- | --- | --- | --- | --- | --- | --- | --- | --- | --- | --- | --- | --- | --- |
| Interleukin 1 receptor antagonist [IL-1Ra] | prevented leptin-induced β-cell apoptosis | protected the β-cells from apoptosis | partially | prevented the effect of siIL-1Ra on DNA fragmentation | restored β-cell function and insulin content | partially prevented those effects | partially restored | restored glucose stimulation | – | – | – | – | – | – | – |
| leptin: rh leptin (PeproTech); protein encoded by the ob gene | – | – | – | – | – | – | – | – | increased the number of TUNEL-positive β-cells | enhanced 33.3 mM glucose-induced apoptosis | did not change baseline cleaved caspase 3 level | an increase became apparent | 41.65% | impaired glucose-stimulated insulin secretion | decreased insulin content |

Reference: US7572770B2, “Use of an interleukin 1 receptor antagonist and/or pyrrolidinedithiocarbamate for the treatment or prophylaxis of type 2 diabetes” (University of Zurich, priority 2002, dated 2009)
